Data as given in patent US11066399B2, “Ferroportin inhibitors” (Vifor (International) AG, priority 2015, dated 2021).

How the values were obtained:
[1] = molecular target: T1, human Fpn-GFP fusion construct (Homo sapiens, UniProt Q9NP59); experiment: Inhibition of ferroportin mediated iron export activity in an iron response assay (BLAzer); type: cell-based; conditions: average (AVE) of multiple measurements; HEK-293 cell line #354
T1 construct: expressed in transfected cells; host or cells: HEK-293 cell line #354 (derivative of HEK-293 Tet-ON Advanced, Clontech)
T1 sequence (Q9NP59 1-571): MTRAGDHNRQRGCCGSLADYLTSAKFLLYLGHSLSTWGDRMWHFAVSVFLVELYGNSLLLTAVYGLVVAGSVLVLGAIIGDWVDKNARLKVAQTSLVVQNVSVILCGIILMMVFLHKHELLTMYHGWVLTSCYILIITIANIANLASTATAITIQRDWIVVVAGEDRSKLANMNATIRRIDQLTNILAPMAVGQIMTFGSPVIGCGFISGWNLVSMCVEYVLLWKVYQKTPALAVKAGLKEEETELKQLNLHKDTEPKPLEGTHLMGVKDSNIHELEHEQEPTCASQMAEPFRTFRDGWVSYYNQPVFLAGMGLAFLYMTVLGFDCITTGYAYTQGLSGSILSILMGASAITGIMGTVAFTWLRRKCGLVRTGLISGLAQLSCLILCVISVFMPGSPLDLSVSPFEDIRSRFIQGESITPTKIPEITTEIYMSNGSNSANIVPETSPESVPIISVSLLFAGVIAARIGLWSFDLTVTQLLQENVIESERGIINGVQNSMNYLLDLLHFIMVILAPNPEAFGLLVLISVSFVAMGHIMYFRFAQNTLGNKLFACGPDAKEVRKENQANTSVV
Description: Intracellular iron levels are indirectly measured in this assay by monitoring the activity of a beta-lactamase (BLA) reporter gene fused to the human ferritin promoter and the associated iron regulatory element (IRE) contained within the 5′ untranslated region of the ferritin mRNA. Expression of ferroportin (Fpn) in such a cell line leads to iron efflux and lower iron levels as reflected by lower activity of the reporter gene. On the other hand, inhibition of Fpn-mediated iron efflux results in elevated cellular iron levels which is detected as increased reporter gene activity. Small molecular weight Fpn inhibitor compounds were tested for dose-dependent effects in this in vitro iron response assay as described below.
The HEK-293 cell line #354 was generated by stable integration of (i) a human Fpn-GFP fusion construct inserted in a derivative of the doxycycline-inducible pTRE-Tight-BI plasmid (Clontech, Cat. 631068) and (ii) a human ferritin promoter-BLA reporter gene into a derivative of the HEK-293 Tet-ON Advanced cell line (Clontech). […] After overnight incubation, 10 μl/well of dilution series of the test compounds were added in quadruplicates and plates were further incubated overnight at 37° C. with 5% CO2. Cells were washed 3 times with HBSS leaving 25 μl per well. BLA activity was detected by adding 5 μl/well of the GeneBlazer reagent CCF4-AM (Invitrogen, Cat. K1085) to the cells. After incubation of the plates in the dark at 18° C. for 60 min., blue and green fluorescence signals were measured in a Safire2 fluorescence plate reader (Tecan) with excitation at 410 nm and emissions at 458 nm (blue) and 522 nm (green). The ratio of blue/green fluorescence as a measure for BLA activity was calculated and EC50 values were determined with the calculated blue/green fluorescence ratios as described for the hepcidin internalization assay.

[2] = molecular target: T2, human Fpn (Homo sapiens, UniProt Q9NP59); experiment: Biophysical Ferroportin-Hepcidin Binding Assay (fluorescence polarization); conditions: average (AVE) of multiple measurements; TMR-hepcidin binding to purified human Fpn; read-out: FP IC50
T2 construct: FLAG (C); made in house; host or cells: Pichia pastoris
T2 sequence (Q9NP59 1-571): T1 sequence (Q9NP59 1-571)
Protocol: This biophysical assay was developed to confirm inhibition of hepcidin binding to ferroportin (Fpn) more directly. Incubation of TMR-hepcidin with purified human Fpn isolated from Pichia pastoris yeast cells expressing human Fpn with a C-terminal FLAG affinity tag (Bonaccorsi di Patti, 2014) leads to increased fluorescence polarization (FP) of the TMR-hepcidin ligand. Small molecular weight Fpn inhibitors were tested for inhibition of binding of TMR-hepcidin to Fpn, as detected by dose-dependent decrease of the TMR FP signal, as described in detail below.
A mixture of […] human Fpn and 30 nM TMR-hepcidin in FP assay buffer containing 50 mM Tris-HCl pH 7.3, 200 mM NaCl, 0.02% DDM, 0.1% BSA was plated into a 384 well black low volume round bottom plate (Corning, Cat. 3677) at 16 μl per well. 8 μl of serial dilutions of test compounds were added in duplicates to reach final Fpn and TMR-hepcidin concentrations of […] and 20 nM, respectively. Plates were incubated for 90 minutes at room temperature and parallel (S) and perpendicular (P) fluorescence was measured in a Synergy H1 fluorescence reader (BioTek). FP values were calculated in mP according to the following formula.

Row | SMILES | EC50 [1] [nM] | IC50 [2] [nM]
1 | O=C(NCc1ncccc1F)c1cnc(C2CN(CCc3nc4ccccc4[nH]3)C2)o1 [Example 2] | 1030 | 17
2 | O=C(NCc1ncccc1F)c1csc(CCNCc2nc3ccccc3[nH]2)n1 [Example 40] | 1450 | 68
3 | O=C(NCc1ncccc1F)c1cnc(CCNCCc2nc3ccccc3[nH]2)o1 [Example 1] | 930 | 16
4 | O=C(NCc1ncccc1F)c1cnn(CCNCCc2cc3ccccc3[nH]2)c1 [Example 277] | 170 | –
